Test results taken from patent US20230151025A1, “SUBSTITUTED THIAZOLOPYRIDINES, SALTS THEREOF AND THEIR USE AS HERBICIDALLY ACTIVE SUBSTANCES” (Bayer Aktiengesellschaft, priority 2020, published 2023).

Legend:
Assay type in all cases: in vivo
[1] = test system: Abutilon theophrasti (ABUTH); assay: Herbicidal pre-emergence action (A), 1280 g/ha; details: visual grading after ca. 3 weeks vs untreated controls, 100% = plants have died off, 0% = as control plants
Method in brief: (§1)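 Seeds were sown in sandy loam pots (one mono- and one dicot weed per pot) and covered with soil; WP or EC formulations were applied to the soil surface as aqueous suspension/emulsion with 0.5% additive at 600 l water/ha. Damage was scored visually after ca. 3 weeks versus untreated controls (0% = control, 100% = dead).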

[2] = test system: Alopecurus myosuroides (ALOMY); assay: Herbicidal pre-emergence action (A), 1280 g/ha; details: visual grading after ca. 3 weeks vs untreated controls, 100% = plants have died off, 0% = as control plants
Method in brief: as §1

[3] = test system: Amaranthus retroflexus (AMARE); assay: Herbicidal pre-emergence action (A), 1280 g/ha; details: visual grading after ca. 3 weeks vs untreated controls
Method in brief: as §1

[4] = test system: Echinochloa crus-galli (ECHCG); assay: Herbicidal pre-emergence action (A), 1280 g/ha; details: visual grading after ca. 3 weeks vs untreated controls, 100% = plants have died off, 0% = as control plants
Method in brief: as §1

[5] = test system: Kochia scoparia (KCHSC; Bassia scoparia); assay: Herbicidal pre-emergence action (A), 1280 g/ha; details: visual grading after ca. 3 weeks vs untreated controls
Method in brief: as §1

[6] = test system: Lolium rigidum (LOLRI); assay: Herbicidal pre-emergence action (A), 1280 g/ha; details: visual grading after ca. 3 weeks vs untreated controls, 100% = plants have died off, 0% = as control plants
Method in brief: as §1

[7] = test system: Matricaria inodora (MATIN); assay: Herbicidal pre-emergence action (A), 1280 g/ha; details: visual grading after ca. 3 weeks vs untreated controls
Method in brief: as §1

[8] = test system: Poa annua (POAAN); assay: Herbicidal pre-emergence action (A), 1280 g/ha; details: visual grading after ca. 3 weeks vs untreated controls, 100% = plants have died off, 0% = as control plants
Method in brief: as §1

[9] = test system: Setaria viridis (SETVI); assay: Herbicidal pre-emergence action (A), 1280 g/ha; details: visual grading after ca. 3 weeks vs untreated controls
Method in brief: as §1

[10] = test system: Stellaria media (STEME); assay: Herbicidal pre-emergence action (A), 1280 g/ha; details: visual grading after ca. 3 weeks vs untreated controls
Method in brief: as §1

[11] = test system: Veronica persica (VERPE); assay: Herbicidal pre-emergence action (A), 1280 g/ha; details: visual grading after ca. 3 weeks vs untreated controls
Method in brief: as §1

[12] = test system: Alopecurus myosuroides (ALOMY); assay: Herbicidal post-emergence action (B), 1280 g/ha; details: rated visually after about 3 weeks vs untreated controls
Method in brief: (§2)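 Post-emergence spray, one-leaf stage; WP/EC formulation, aqueous, 0.5% additive, 600 L/ha water. Sandy loam, greenhouse, doubly sown pots. Visual % rating vs untreated control at ~3 weeks (100% = dead).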

[13] = test system: Echinochloa crus-galli (ECHCG); assay: Herbicidal post-emergence action (B), 1280 g/ha; details: rated visually after about 3 weeks vs untreated controls
Method in brief: as §2

[14] = test system: Kochia scoparia (KCHSC; Bassia scoparia); assay: Herbicidal post-emergence action (B), 1280 g/ha
Method in brief: as §2

[15] = test system: Poa annua (POAAN); assay: Herbicidal post-emergence action (B), 1280 g/ha; details: rated visually after about 3 weeks vs untreated controls
Method in brief: as §2

[16] = test system: Stellaria media (STEME); assay: Herbicidal post-emergence action (B), 1280 g/ha
Method in brief: as §2

[17] = test system: Veronica persica (VERPE); assay: Herbicidal post-emergence action (B), 1280 g/ha
Method in brief: as §2

[18] = test system: Alopecurus myosuroides (ALOMY); assay: Herbicidal pre-emergence action (C), 320 g/ha; details: ca. 3 weeks
Excerpt: (§3) ABUTH: Abutilon theophrasti AGSTE: Agrostis tenuis ALOMY: Alopecurus myosuroides AMARE Amaranthus retroflexus DIGSA: Digitaria sanguinalis ECHCG: Echinochloa crus-galli KCHSC: Kochia scoparia LOLRI: Lolium rigidum MATIN: Matricaria inodora POAAN: Poa annua POLCO: Polygonum convolvulus SETVI: Setaria viridis STEME: Stellaria media VERPE: Veronica persica VIOTR: Viola tricolor
(§4) Seeds of mono- and dicotyledonous weed plants and crop plants were sown, in plastic or organic planting pots, in sandy loam and covered with soil. The compounds according to the invention, formulated in the form of wettable powders (WP) or as emulsifiable concentrates (EC), were applied to the surface of the covering soil as aqueous suspension or emulsion, with the addition of 0.5% of an additive, at an application rate of 600 l of water/ha (converted).
(§5) Following treatment, the pots were placed in a greenhouse and kept under optimum growth conditions for the test plants. The visual grading of the damage to the test plants was carried out after ca. 3 weeks in comparison to untreated controls (herbicidal effect in percent (%): 100% effect=plants have died off, 0% effect=as control plants).
(§6) Tables C1 to C13 below show the effects of selected compounds of the general formula (I) according to table 1 on various harmful plants and an application rate corresponding to 320 g/ha obtained by the experimental procedure mentioned above.

[19] = test system: Amaranthus retroflexus (AMARE); assay: Herbicidal pre-emergence action (C), 320 g/ha; details: ca. 3 weeks
Excerpt: as §3, §4, §5, §6

[20] = test system: Echinochloa crus-galli (ECHCG); assay: Herbicidal pre-emergence action (C), 320 g/ha; details: ca. 3 weeks
Excerpt: as §3, §4, §5, §6

[21] = test system: Lolium rigidum (LOLRI); assay: Herbicidal pre-emergence action (C), 320 g/ha; details: ca. 3 weeks
Excerpt: as §3, §4, §5, §6

[22] = test system: Matricaria inodora (MATIN); assay: Herbicidal pre-emergence action (C), 320 g/ha; details: ca. 3 weeks
Excerpt: as §3, §4, §5, §6

[23] = test system: Setaria viridis (SETVI); assay: Herbicidal pre-emergence action (C), 320 g/ha; details: ca. 3 weeks
Excerpt: as §3, §4, §5, §6

[24] = test system: Amaranthus retroflexus (AMARE); assay: Herbicidal post-emergence action (D), 320 g/ha; details: ca. 3 weeks
Excerpt: as §3
(§7) Seeds of mono- and dicotyledonous weed plants and crop plants were sown, in plastic or organic planting pots, in sandy loam, covered with soil and grown in a greenhouse under controlled growth conditions. 2 to 3 weeks after sowing, the test plants were sprayed in the single-leaf stage. The compounds according to the invention, formulated in form of wettable powders (WP) or as emulsifiable concentrates (EC), were sprayed onto the green plant parts as aqueous suspension or emulsion, with the addition of 0.5% of an additive, at an application rate of 600 l of water/ha (converted). The test plants were placed in the greenhouse for ca. 3 weeks under optimum growth conditions, and then the effect of the preparations was assessed visually in comparison with untreated controls (herbicidal effect in percent (%): 100% effect=plants have died off, 0% effect=as control plants).
(§8) Tables D1 to D13 below show the effects of selected compounds of the general formula (I) according to table 1 on various harmful plants and an application rate corresponding to 320 g/ha obtained by the experimental procedure mentioned above.

[25] = test system: Echinochloa crus-galli (ECHCG); assay: Herbicidal post-emergence action (D), 320 g/ha; details: ca. 3 weeks
Excerpt: as §3, §7, §8

[26] = test system: Setaria viridis (SETVI); assay: Herbicidal post-emergence action (D), 320 g/ha; details: ca. 3 weeks
Excerpt: as §3, §7, §8

[27] = test system: Veronica persica (VERPE); assay: Herbicidal post-emergence action (D), 320 g/ha; details: ca. 3 weeks
Excerpt: as §3, §7, §8

[28] = test system: Amaranthus retroflexus (AMARE); assay: Herbicidal post-emergence action (B), 1280 g/ha; details: rated visually after about 3 weeks vs untreated controls
Method in brief: as §2

[29] = test system: Matricaria inodora (MATIN); assay: Herbicidal post-emergence action (B), 1280 g/ha; details: rated visually after about 3 weeks vs untreated controls
Method in brief: as §2

[30] = test system: Veronica persica (VERPE); assay: Herbicidal pre-emergence action (C), 320 g/ha; details: ca. 3 weeks
Excerpt: as §3, §4, §5, §6

[31] = test system: Lolium rigidum (LOLRI); assay: Herbicidal post-emergence action (B), 1280 g/ha; details: one-leaf stage, rated after about 3 weeks vs untreated controls, 100% activity = the plants have died, 0% = like control plants
Method in brief: as §2

`Clc1cc2scnc2nc1-c1ccsc1Cl` [Example I-190] was tested. Which “ABUTH, herbicidal effect in percent (%)” value [1] did it give?
The value was 90%.

And the “ALOMY, herbicidal effect in percent (%)” value [2]?
Its value is 100%.

And the “herbicidal effect AMARE” value [3]?
The value was 90%.

What about the “ECHCG, herbicidal effect in percent (%)” value [4] of the same molecule?
Its value is 100%.

What about the “herbicidal effect KCHSC” value [5] of the same molecule?
Its value is 90%.

And the “LOLRI, herbicidal effect in percent (%)” value [6]?
The value was 100%.

And the “herbicidal effect MATIN” value [7]?
Its value is 100%.

What about the “POAAN, herbicidal effect in percent (%)” value [8] of the same molecule?
Its value is 100%.

What about the “herbicidal effect SETVI” value [9] of the same molecule?
Its value is 100%.

And the “herbicidal effect STEME” value [10]?
The value was 90%.

And the “herbicidal effect VERPE” value [11]?
The value was 90%.

What about the “herbicidal activity ALOMY” value [12] of the same molecule?
The value was 100%.

And the “herbicidal activity ECHCG” value [13]?
Its value is 100%.

What about the “herbicidal effect KCHSC” value [14] of the same molecule?
Its value is 90%.

And the “herbicidal activity POAAN” value [15]?
Its value is 100%.

What about the “herbicidal effect STEME” value [16] of the same molecule?
The value was 90%.

And the “herbicidal effect VERPE” value [17]?
Its value is 100%.

What about the “herbicidal effect ALOMY” value [18] of the same molecule?
The value was 100%.

And the “herbicidal effect AMARE” value [19]?
Its value is 90%.

What about the “herbicidal effect ECHCG” value [20] of the same molecule?
Its value is 100%.

And the “herbicidal effect LOLRI” value [21]?
The value was 100%.

And the “herbicidal effect MATIN” value [22]?
The value was 80%.

And the “herbicidal effect SETVI” value [23]?
Its value is 100%.

What about the “herbicidal effect AMARE” value [24] of the same molecule?
The value was 80%.

What about the “herbicidal effect ECHCG” value [25] of the same molecule?
Its value is 90%.

And the “herbicidal effect SETVI” value [26]?
Its value is 80%.

And the “herbicidal effect VERPE” value [27]?
Its value is 80%.

`Cc1sccc1-c1nc2ncsc2cc1Br` [Example I-135] was tested. Which “ALOMY, herbicidal effect in percent (%)” value [2] did it give?
Its value is 90%.

What about the “herbicidal effect AMARE” value [3] of the same molecule?
The value was 90%.

And the “ECHCG, herbicidal effect in percent (%)” value [4]?
The value was 100%.

What about the “herbicidal effect KCHSC” value [5] of the same molecule?
The value was 90%.

And the “LOLRI, herbicidal effect in percent (%)” value [6]?
The value was 100%.

What about the “herbicidal effect MATIN” value [7] of the same molecule?
Its value is 100%.

And the “POAAN, herbicidal effect in percent (%)” value [8]?
Its value is 100%.

What about the “herbicidal effect SETVI” value [9] of the same molecule?
The value was 100%.

And the “herbicidal effect STEME” value [10]?
Its value is 90%.

And the “herbicidal effect VERPE” value [11]?
Its value is 90%.

What about the “herbicidal activity ALOMY” value [12] of the same molecule?
Its value is 90%.

And the “herbicidal activity AMARE” value [28]?
Its value is 90%.

And the “herbicidal effect KCHSC” value [14]?
Its value is 90%.

What about the “herbicidal activity MATIN” value [29] of the same molecule?
Its value is 90%.

And the “herbicidal activity POAAN” value [15]?
Its value is 90%.

And the “herbicidal effect VERPE” value [17]?
Its value is 90%.

And the “herbicidal effect ALOMY” value [18]?
Its value is 100%.

And the “herbicidal effect AMARE” value [19]?
The value was 90%.

And the “herbicidal effect ECHCG” value [20]?
Its value is 100%.

What about the “herbicidal effect LOLRI” value [21] of the same molecule?
Its value is 100%.

And the “herbicidal effect MATIN” value [22]?
Its value is 80%.

And the “herbicidal effect SETVI” value [23]?
The value was 100%.

What about the “herbicidal effect VERPE” value [30] of the same molecule?
Its value is 80%.

What about the “herbicidal effect ECHCG” value [25] of the same molecule?
The value was 80%.

With `Cc1cscc1-c1ccc2scnc2n1` [Example I-134] as the molecule, how does the “ALOMY, herbicidal effect in percent (%)” value [2] read?
The value was 90%.

What about the “LOLRI, herbicidal effect in percent (%)” value [6] of the same molecule?
The value was 100%.

And the “herbicidal effect MATIN” value [7]?
The value was 90%.

And the “POAAN, herbicidal effect in percent (%)” value [8]?
Its value is 90%.

And the “herbicidal effect SETVI” value [9]?
The value was 100%.

And the “herbicidal effect STEME” value [10]?
Its value is 100%.

And the “herbicidal activity AMARE” value [28]?
The value was 90%.

What about the “LOLRI, activity rated visually (%)” value [31] of the same molecule?
Its value is 90%.

What about the “herbicidal activity POAAN” value [15] of the same molecule?
Its value is 90%.
